Experimental data from patent publication US8852657B2, “Chromones as therapeutic agents” (Unigen, Inc., priority 2007, dated 2014).
“Also recorded” adds a separate entry of the source.

Assays:
[1] = test system: high fat diet induced C57BL/6J mice; test: Fasting triglyceride, UP780 dose-range study; assay type: in vivo, mouse; details: after 7 weeks of daily oral treatment; GW1929 5 mg/kg
Protocol: (§1) Once an induction of the disease on animals after 8 weeks of high fat diets was confirmed by monitoring of selected parameters, daily oral treatment was initiated. On each day, the test articles and the positive control GW1929 (Tocris Bioscience, Ellisville, Mo., Batch #2A/58705) were dissolved in 0.5% methylcellulose (Sigma, St. Louise Mo., Lot#116H0857) and delivered at an oral dose of 100, 200 and 400 mg/kg of UP780 (Lot # L1806QMAW-01); 400 mg/kg of Qmatrix® Aloe vera gel powder (QM400, Lot# G6319103-L3) as well as 5 mg/kg of GW1929. As GW1929 was not completely solublized in methylcellulose, it was first dissolved in DMSO (Sigma, St. Louis, Mo., Batch#064K0067). The final concentration of test compounds, including the vehicle, was then adjusted to contain 5% DMSO before drug administration. The carrier vehicle treated animals received 0.5% methylcellulose only. No detectable sign of irritation was observed after each drug or vehicle administration.
(§2) As described on Example 12, male C57BL/6J mice were purchased from Jackson Laboratories (Bar Harbor, Me.) at 6 weeks of age. […]
(§3) Fasting blood glucose, total cholesterol and triglyceride levels were measured using 15-20 μl of blood obtained from tail vein. […]

[2] = test system: C57BL/6J mice fed high fat diet; test: Plasma insulin level (ELISA), high-fat diet induced model; assay type: in vivo, mouse; details: day 14 of treatment after 8 weeks high-fat diet; P<0.05; GW1929 5 mg/kg, UP394 and UP396 100 mg/kg
Source text: A high-fat diet induced animal model was developed and used for evaluation of potential therapeutic effects of chromone extracts. The C57BL/6J is a clinically relevant animal model that can be used in studies on metabolic disorders, pathophysiology of impaired glucose tolerance and for development of novel therapeutic agents (Ahren et al. (2004) Diabetes 53 (Supplement 3):S215-S219; Laakso et al. (2004) Diabetes Care 27:2253-2259; Kahn et al. (2004) Diabetes 53:3274-3285; Scheurink et al. (1998) European J Endo. 139:461-467; Yuan et al. (2002) Diabetes 51:1851-1858; Reitman et al. (2005) Endocrinology 145:3258-3264; Vlassara et al. (2005) Diabetes 54:2314-2319; Cawthome et al. (2002) Molecular and Cellular Proteomics 1:509-516). Methodology of model induction was first explained by Surwit et al. in 1988 (Diabetes, 37:1163-1167). In brief, impaired glucose tolerance and metabolic disorder like symptoms were inflicted successfully in C57BL/6J mice when fed with high fat diets for 8 weeks. Male C57BL/6J mice were purchased from Jackson Laboratories (Bar Harbor, Me.) at age of 6 weeks. One week after acclimation period, animals were divided into groups (n=5 or 6) and provided with high fat (45% kcal) rodent pellet (Research diets, Inc., New Brunswick, N.J.) and water ad libitum for 12 weeks except at times of glucose and insulin tolerance tests at which feed was withheld for three hours. Animals were maintained in a temperature controlled room (22.2° C.) on a 12 hour light-dark cycle. Blood glucose, cholesterol, and triglyceride were monitored every week for 12 weeks as described previously. Body weight measurement was taken once a week for 12 weeks.
Once induction of the metabolic disorders was confirmed by weekly monitoring of selected parameters (glucose, triglyceride and cholesterol) i.e. on the 8th week, daily intraperitoneal treatment was initiated and maintained for 4 weeks. […]
The plasma insulin levels were measured with an ELISA kit for insulin (Crystal Chem—Chicago, Ill.). […]

[3] = Body weight, UP780 dose-range study; assay type: in vivo, mouse; details: GW1929 5 mg/kg, Qmatrix 400 mg/kg, UP780 100, 200 and 400 mg/kg; weekly
Protocol: as §1, §2
(§4) Three or four male C57BL/6J mice were housed in a mouse cage that had sections for feed and water. Feed intake was determined daily by measuring the difference between previously weighed high fat pellets value and what was left on the given day. […]

[4] = test system: db/db mice; test: Weekly fasting glucose levels in db/db mice; assay type: in vivo, mouse; details: GW1929 5 mg/kg, N931 375 mg/kg
Protocol: Fasting glucose levels of male db/db mice (8 mice in each group) treated with GW1929 (5 mg/kg), N931 (375 mg/kg) and vehicle were measured weekly. Animals were provided with T2018 rodent diet ad libitum except when fasting. Animals were fasted overnight before measurements were taken.

[5] = test system: high fat diet induced C57BL/6J mice; test: Fasting blood glucose, UP780 dose-range study; assay type: in vivo, mouse; details: weeks 5 and 7; UP780 200 mg/kg, GW1929 5 mg/kg
Protocol: as §1, §2, §3

[6] = test system: diabetic animal models; details: administered orally; Brown et al. (1999), Way et al. (2001); cited from earlier work
[7] = Feed consumption, UP780 dose-range study; assay type: in vivo, mouse; details: GW1929 5 mg/kg, Qmatrix 400 mg/kg, UP780 100, 200 and 400 mg/kg
Protocol: as §1, §2, §4

For `CN(CCOc1ccc(C[C@H](Nc2ccccc2C(=O)c2ccccc2)C(=O)O)cc1)c1ccccn1` [GW1929, N-(2-Benzoylphenyl)-O-[2-(methyl-2-pyridinylamino)ethyl]-L-tyrosine], the “percent reduction of fasting triglyceride level to vehicle” value [1] was 22.7%, the “plasma insulin levels compared to vehicle” value [2] was “decreased the insulin level significantly; also recorded: Significant decreases in plasma insulin levels” and the “body weight gain difference between groups” value [3] was “no significant body weight gain or feed consumption differences; also recorded: No statistically significant body weight gain difference”. For the same compound, the “course of fasting glucose level during 10-week treatment” value ([4]; starting from week 5) was “maintain the glucose levels at the baseline level”, the “fasting blood glucose levels compared to vehicle” value ([4]; weeks 6, 7, 9 and 10, P<0.05) was “significantly lower” and the “fasting glucose level compared to vehicle” value [5] was “statistically significant lower fasting glucose level”. For the same compound, the “glucose, fatty acids and triglyceride levels” value [6] was “decreases glucose, fatty acids and triglyceride levels” and the “feed consumption difference between groups” value [7] was “no significant body weight gain or feed consumption differences”.
